Reference: patent US10329309B2, “3-(3H-imidazo[4,5-B]pyridin-2-yl)-1H-pyrazolo[4,3-B]pyridines and therapeutic uses thereof” (Samumed, LLC, priority 2015, dated 2019)

Legend:
[1] = test system: primary human fibroblasts derived from IPF patients (LL29 cells), α-smooth muscle actin (αSMA); experiment: Inhibition of the fibrotic process: TGF-β1-treated primary human fibroblasts from IPF patients, αSMA staining; format: cell-based; conditions: Fibroblast, 96 h, 4 days; for EC50: LL29 fibroblasts from IPF patients, TGF-β1 20 ng/mL, inhibition of fibrotic process; for inhibition at 10 µM: LL29 fibroblasts, TGF-β1 treated, read-out: percent inhibition at 10 μM (given for EC50 of >10 μM)
Outline: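 LL29 cells plated in F12 with 1% FBS, compounds added as 11-point 1:2 series (10 μM to 1.87 nM, 0.1% DMSO), then TGF-β1 20 ng/mL; 4 days at 37 °C. Fixed, αSMA immunostained, imaged; SYTOX-positive cells excluded. % αSMA-positive cells normalized to TGF-β1 wells; EC50 by non-linear regression, or % inhibition at 10 μM.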

SW480 colon cancer cells = experiment: Cell viability assay (CellTiter-Blue), four days; format: cell-based; conditions: Homo sapiens, 96 h; for EC50: CellTiter-Blue cell viability; for inhibition at 10 µM: read-out: percent inhibition at 10 μM (given for EC50 of >10 μM)
Outline: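 SW480 cells (~2×10^3 per well) were exposed to compound for four days at 37 °C/5% CO2, using 8-point 1:3 dilutions from 10 μM to 0.0045 μM in duplicate. Viability was read by resazurin reduction (CellTiter-Blue, ~3 h, Ex 560/Em 590 nm). EC50 came from non-linear regression; above 10 μM, percent inhibition at 10 μM is given.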

SMILES	EC50 (SW480 colon cancer cells) [µM]	EC50 [1] [µM]	inhibition at 10 µM [1] [%]	inhibition at 10 µM (SW480 colon cancer cells) [%]
CCCCC(=O)Nc1cncc(-c2ccc3[nH]nc(-c4nc5c(-c6ccccn6)ccnc5[nH]4)c3n2)c1 [Compound 159, N-(5-(3-(7-(pyridin-2-yl)-3H-imidazo[4,5-b]pyridin-2-yl)-1H-pyrazolo[4,3-b]pyridin-5-yl)pyridin-3-yl)pentanamide]	> 10	> 10	15.4	6.7
Cc1cn(-c2ccnc3[nH]c(-c4n[nH]c5ccc(-c6cncc(NC(=O)CC(C)C)c6)nc45)nc23)cn1 [Compound 198, 3-methyl-N-(5-(3-(7-(4-methyl-1H-imidazol-1-yl)-3H-imidazo[4,5-b]pyridin-2-yl)-1H-pyrazolo[4,3-b]pyridin-5-yl)pyridin-3-yl)butanamide]	> 10	> 10	0	46
Cc1cn(-c2ccnc3[nH]c(-c4n[nH]c5ccc(-c6cncc(NC(=O)C(C)(C)C)c6)nc45)nc23)cn1 [Compound 204, N-(5-(3-(7-(4-methyl-1H-imidazol-1-yl)-3H-imidazo[4,5-b]pyridin-2-yl)-1H-pyrazolo[4,3-b]pyridin-5-yl)pyridin-3-yl)pivalamide]	> 10	> 10	38.8	0
Cc1cn(-c2ccnc3[nH]c(-c4n[nH]c5ccc(-c6cncc(CN7CCCC7)c6)nc45)nc23)cn1 [Compound 210, 3-(7-(4-methyl-1H-imidazol-1-yl)-3H-imidazo[4,5-b]pyridin-2-yl)-5-(5-(pyrrolidin-1-ylmethyl)pyridin-3-yl)-1H-pyrazolo[4,3-b]pyridine]	> 10	6.74	–	12.6
CN1CCN(c2ccnc3[nH]c(-c4n[nH]c5ccc(-c6cncnc6)nc45)nc23)CC1 [Compound 251, 3-(7-(4-Methylpiperazin-1-yl)-3H-imidazo[4,5-b]pyridin-2-yl)-5-(pyrimidin-5-yl)-1H-pyrazolo[4,3-b]pyridine]	> 10	4.36	–	0
c1cncc(-c2ccc3[nH]nc(-c4nc5cccnc5[nH]4)c3n2)c1 [Compound 256, 3-(3H-imidazo[4,5-b]pyridin-2-yl)-5-(pyridin-3-yl)-1H-pyrazolo[4,3-b]pyridine]	> 10	> 10	10.4	22.2
O=C(Cc1ccccc1)Nc1cncc(-c2ccc3[nH]nc(-c4nc5cccnc5[nH]4)c3n2)c1 [Compound 262, N-(5-(3-(3H-imidazo[4,5-b]pyridin-2-yl)-1H-pyrazolo[4,3-b]pyridin-5-yl)pyridin-3-yl)-2-phenylacetamide]	> 10	> 10	0	5.5
CC(C)(C)CC(=O)Nc1cncc(-c2ccc3[nH]nc(-c4nc5cccnc5[nH]4)c3n2)c1 [Compound 268, N-(5-(3-(3H-Imidazo[4,5-b]pyridin-2-yl)-1H-pyrazolo[4,3-b]pyridin-5-yl)pyridin-3-yl)-3,3-dimethylbutanamide]	> 10	7.2	–	0
O=C(Nc1cncc(-c2ccc3[nH]nc(-c4nc5cccnc5[nH]4)c3n2)c1)C1CCCCC1 [Compound 275, N-(5-(3-(3H-Imidazo[4,5-b]pyridin-2-yl)-1H-pyrazolo[4,3-b]pyridin-5-yl)pyridin-3-yl)cyclohexanecarboxamide]	> 10	3.96	–	2.6
Cc1ccc(-c2ccnc3[nH]c(-c4n[nH]c5ccc(-c6cncc(NC(=O)C7CCCC7)c6)nc45)nc23)s1 [Compound 414, N-(5-(3-(7-(5-Methylthiophen-2-yl)-3H-imidazo[4,5-b]pyridin-2-yl)-1H-pyrazolo[4,3-b]pyridin-5-yl)pyridin-3-yl)cyclopentanecarboxamide]	> 10	0.066	–	14.7
CCNCc1cncc(-c2ccc3[nH]nc(-c4nc5c(-c6cc(F)cc(NCCN(C)C)c6)ccnc5[nH]4)c3n2)c1 [Compound 454, N^1-(3-(2-(5-(5-((ethylamino)methyl)pyridin-3-yl)-1H-pyrazolo[4,3-b]pyridin-3-yl)-3H-imidazo[4,5-b]pyridin-7-yl)-5-fluorophenyl)-N^2,N^2-dimethylethane-1,2-diamine]	> 10	3.51	–	42.2
CCCCC(=O)Nc1cncc(-c2ccc3[nH]nc(-c4nc5c(-c6cc(F)cc(NCCN(C)C)c6)ccnc5[nH]4)c3n2)c1 [Compound 467, N-(5-(3-(7-(3-((2-(dimethylamino)ethyl)amino)-5-fluorophenyl)-3H-imidazo[4,5-b]pyridin-2-yl)-1H-pyrazolo[4,3-b]pyridin-5-yl)pyridin-3-yl)pentanamide]	> 10	2.26	–	2.7
CN(C)CCNc1cc(F)cc(-c2ccnc3[nH]c(-c4n[nH]c5ccc(-c6ccccn6)nc45)nc23)c1 [Compound 476, N^1-(3-Fluoro-5-(2-(5-(pyridin-2-yl)-1H-pyrazolo[4,3-b]pyridin-3-yl)-3H-imidazo[4,5-b]pyridin-7-yl)phenyl)-N^2,N^2-dimethylethane-1,2-diamine]	9.02	4.41	–	–

Now from value to compound, other results behind:

EC50 (SW480 colon cancer cells) [µM]	SMILES	EC50 [1] [µM]	inhibition at 10 µM [1] [%]	inhibition at 10 µM (SW480 colon cancer cells) [%]
4.65	CCC(=O)Nc1cncc(-c2ccc3[nH]nc(-c4nc5c(N6CCCCC6)ccnc5[nH]4)c3n2)c1 [Compound 169, N-(5-(3-(7-(piperidin-1-yl)-3H-imidazo[4,5-b]pyridin-2-yl)-1H-pyrazolo[4,3-b]pyridin-5-yl)pyridin-3-yl)propionamide]	5.3	–	–
> 10	CN(C)c1cncc(-c2ccc3[nH]nc(-c4nc5c(N6CCCCC6)ccnc5[nH]4)c3n2)c1 [Compound 175, N,N-dimethyl-5-(3-(7-(piperidin-1-yl)-3H-imidazo[4,5-b]pyridin-2-yl)-1H-pyrazolo [4,3-b]pyridin-5-yl)pyridin-3-amine]	2.53	–	13.6
5.55	CN(C)Cc1cncc(-c2ccc3[nH]nc(-c4nc5c(N6CCCCC6)ccnc5[nH]4)c3n2)c1 [Compound 181, N,N-dimethyl-1-(5-(3-(7-(piperidin-1-yl)-3H-imidazo[4,5-b]pyridin-2-yl)-1H-pyrazolo[4,3-b]pyridin-5-yl)pyridin-3-yl)methanamine]	1.36	–	–
> 10	Cc1cn(-c2ccnc3[nH]c(-c4n[nH]c5ccc(-c6cncc(NC(=O)C7CCC7)c6)nc45)nc23)cn1 [Compound 217, N-(5-(3-(7-(4-methyl-1H-imidazol-1-yl)-3H-imidazo[4,5-b]pyridin-2-yl)-1H-pyrazolo[4,3-b]pyridin-5-yl)pyridin-3-yl)cyclobutanecarboxamide]	6.1	–	2.1
> 10	CN1CCN(c2ccnc3[nH]c(-c4n[nH]c5ccc(-c6cncc(N)c6)nc45)nc23)CC1 [Compound 227, 5-(3-(7-(4-methylpiperazin-1-yl)-3H-imidazo[4,5-b]pyridin-2-yl)-1H-pyrazolo[4,3-b]pyridin-5-yl)pyridin-3-amine]	> 10	32.8	0
> 10	CC(C)C(=O)Nc1cncc(-c2ccc3[nH]nc(-c4nc5c(N6CCN(C)CC6)ccnc5[nH]4)c3n2)c1 [Compound 233, N-(5-(3-(7-(4-methylpiperazin-1-yl)-3H-imidazo[4,5-b]pyridin-2-yl)-1H-pyrazolo [4,3-b]pyridin-5-yl)pyridin-3-yl)isobutyramide]	4.84	–	0
> 10	CN1CCN(c2ccnc3[nH]c(-c4n[nH]c5ccc(-c6cncc(NC(=O)C7CCCC7)c6)nc45)nc23)CC1 [Compound 246, N-(5-(3-(7-(4-Methylpiperazin-1-yl)-3H-imidazo[4,5-b]pyridin-2-yl)-1H-pyrazolo[4,3-b]pyridin-5-yl)pyridin-3-yl)cyclopentanecarboxamide]	2.24	–	0
> 10	CCC(=O)Nc1cncc(-c2ccc3[nH]nc(-c4nc5c(-c6ccsc6)ccnc5[nH]4)c3n2)c1 [Compound 281, N-(5-(3-(7-(thiophen-3-yl)-3H-imidazo[4,5-b]pyridin-2-yl)-1H-pyrazolo[4,3-b]pyridin-5-yl)pyridin-3-yl)propionamide]	> 10	21.4	24.2
> 10	CN(C)c1cncc(-c2ccc3[nH]nc(-c4nc5c(-c6cccs6)ccnc5[nH]4)c3n2)c1 [Compound 343, N,N-dimethyl-5-(3-(7-(thiophen-2-yl)-3H-imidazo[4,5-b]pyridin-2-yl)-1H-pyrazolo [4,3-b]pyridin-5-yl)pyridin-3-amine]	1.18	–	17.5
> 10	CS(=O)(=O)NCc1cc(F)cc(-c2ccnc3[nH]c(-c4n[nH]c5ccc(-c6cncc(NC(=O)c7ccccc7)c6)nc45)nc23)c1 [Compound 487, N-(5-(3-(7-(3-Fluoro-5-(methylsulfonamidomethyl)phenyl)-3H-imidazo[4,5-b]pyridin-2-yl)-1H-pyrazolo[4,3-b]pyridin-5-yl)pyridin-3-yl)benzamide]	> 10	0	0.6
